Laboratory results from patent US10450274B2, “Quinoline compounds, preparation methods thereof, and uses thereof as urate transporter inhibitor drug” (HINOVA PHARMACEUTICALS INC., priority 2015, dated 2019).
pIC50: −log10 of the molar value. Where “and” joins values, the source holds several entries; their conditions need not be identical. Identical values can stand only once.

These molecules were tested against T1, hURAT1 (Homo sapiens, UniProt Q96S37) (assay: Inhibitory activity against URAT1: 14C-labelled uric acid uptake in HEK-293t cells stably expressing hURAT1). Settings: HEK-293t/hURAT1 cells, 14C uric acid uptake, 5 minutes at room temperature; Ref Cpd 2, 83, Ref Cpd 3 and 129 are averages of head-to-head tests; read-out: IC50 (nM) of hURAT1 inhibitory activity.
T1 sequence (Q96S37 1-553): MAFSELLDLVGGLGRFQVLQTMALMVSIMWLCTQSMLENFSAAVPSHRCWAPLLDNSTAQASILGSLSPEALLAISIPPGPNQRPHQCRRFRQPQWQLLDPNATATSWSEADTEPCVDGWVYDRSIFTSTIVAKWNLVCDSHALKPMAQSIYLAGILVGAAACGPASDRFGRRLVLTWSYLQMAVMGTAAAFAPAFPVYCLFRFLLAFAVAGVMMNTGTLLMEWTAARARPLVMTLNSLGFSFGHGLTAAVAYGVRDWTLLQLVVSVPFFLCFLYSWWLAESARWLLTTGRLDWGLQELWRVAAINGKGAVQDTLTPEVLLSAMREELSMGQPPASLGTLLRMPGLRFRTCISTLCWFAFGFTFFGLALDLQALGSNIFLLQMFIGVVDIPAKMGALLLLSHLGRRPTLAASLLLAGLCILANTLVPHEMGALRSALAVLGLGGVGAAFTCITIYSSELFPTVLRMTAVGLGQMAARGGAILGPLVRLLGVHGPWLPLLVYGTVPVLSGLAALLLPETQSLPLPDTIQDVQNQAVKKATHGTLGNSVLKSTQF
Format: cell-based
Source text: • Test example: Determination of the inhibitory activity of compounds according to the present invention against URAT1 Experimental Materials • FBS (Invitrogen, Cat. No. 10099141) • Trypsin (Invitrogen, Cat. No. 25200056) • DPBS (Invitrogen, Cat. No. 14190250) • DMEM (Invitrogen, Cat. No. 10564) • Penicillin-Streptomycin (Invitrogen, Cat. No. 15070-063) • TransIT-293 Transfection Reagent (MIRUS BIO, Cat. No. MIR2706) • Opti-MEM® I Reduced Serum Medium (Invitrogen, Cat. No. 31985-070) • URAT1 plasmid (Genecopoeia, Cat. No. EX-T4563-M03) • Uric acid [8-14C] (ARC, Cat. No. ARC0513-250UCI) • Ultima Gold™ XR (PerkinElmer, Cat. No. 6013111) • Benzbromarone (J&K Scientific, Cat. No. 3562-84-3) • D-Gluconic acid sodium salt (Aladdin, Cat. No. 527-07-1) • Potassium D-gluconate (Aladdin, Cat. No. 299-27-4) • Calcium gluconate (Aladdin, Cat. No. 299-28-5) • DMSO (Sigma, Cat. No. D2650) • Tube, 15 ml (Greiner, Cat. No. 07030115) • Tube, 50 ml (BD Falcon, Cat. No. 352098) • Poly-D-lysine 96-well microplates (BD, Cat. No. 356461) • Isoplate-96 Microplate (PERKIN ELMER, Cat. No. 6005040) Experimental Method:
Cell Culture: • 1. The HEK-293t cells that expressed the stable expression of hURAT1 were cultured in DMEM medium containing 10% FBS and 1% P/S, and incubated overnight in the incubator at 37° C. under 5% carbon dioxide. • 2. the culture medium was removed, and the cells were washed with PBS, and then the pancreatin was added to digest for 2 minutes. After the cell is separated from the dish, 10 ml of medium was added to terminate digestion. • 3. The cells were placed into a centrifugal apparatus and centrifugated for 2 minutes at the speed of 1000 rpm, followed by the addition of fresh 10 mL medium to resuspend the cells, and calculate the number of cells. The number of cells was adjusted to 4×10^5 cells/mL. • 4. the above counted cells were inoculated into the 96-well plate at 100 μL/well. • 5. The 96-well plate with inoculated cells was placed in a 37° C. cell incubator and cultivated overnight.
The uric acid absorption experiment labeled with isotope C14: • 1. 5 mL of Cl-free HBSS buffer was added to a 15 mL centrifuge tube, followed by the addition of the uric acid labeled with C14, and the concentration of uric acid was 2 uCi/ml. • 2. The medium in the 96-well plate that was previously cultivated overnight was removed, and the plate was washed three times with […] preheated Cl-free HBSS buffer. • 3. The buffer in the well-washed 96-well plate was removed. • 4. […] Cl-free HBSS buffer containing C-14 labeled uric acid was added into each well in the cleaned 96-well plate, and then DMSO solution of the compound that needs to be tested was added. • 5. After the 96-well plate stood for 5 minutes at room temperature, all the liquid in it was removed. • 6. […] precooled Cl-free HBSS buffer was added to wash the plate three times. • 7. After the remained liquid in the plates was completely removed, 50 μL cell lysis was added to each well, and the plate was agitated on the mixer at a speed of 600 revolutions/min for 10 minutes. • 8. After 50 μL Ultima Gold™ XR scitillation cocktail fluid was added, the plate was continued to agitate for 10 minutes. The well-agitated plate was sealed, and the data was read on MicroBeta Trilux. • 9. The test compound was dissolved in DMSO, and DMSO at the same concentration was added to the HEK293/hURAT1 cell well without test compounds. […] The radiation value obtained from the well containing DMSO is considered to be 100% of the cell uptake. The IC50 values of compounds can be calculated by the inhibition rate at different concentrations.
Among them, reference compound 1 was synthesized according to the method described in patent WO 2011/159839 A2. Reference compound 2 and reference compound 3 were synthesized according to the method described in patent WO 2014/183555 A1, and they were head-to-head tested with compounds 83 and 129 respectively under the same conditions.

Molecule	IC50 [nM]
CCCC(CCC)(Sc1ccnc2ccc(Br)cc12)C(=O)O [Compound 114, 2-(6-bromoquinolin-4-ylthio)-2-propylpentanoic acid]	203
COc1cccc(-c2ccc3nccc(SC(C)(C)C(=O)O)c3c2)c1 [Compound 20, 2-(6-(3-methoxyphenyl)-quinolin-4-ylthio)-2-methylpropanoic acid]	21
CCC(CC)(Sc1ccnc2ccc(-c3ccnc(OC)c3)cc12)C(=O)O [Compound 116, 2-(6-(2-methoxypyridin-4-yl)quinolin-4-ylthio)-2-ethylbutanoic acid]	98
CS(=O)(=O)NC(=O)C1(Sc2ccnc3ccc(Br)cc23)CCC1 [Compound 107, 1-(6-bromoquinolin-4-ylthio)-N-(methylsulfonyl)cyclobutyl-1-formamide]	336
CC(C)(Sc1ccnc2ccc(-c3ccccc3C(F)(F)F)cc12)C(=O)O [Compound 37]	325
CC(C)(Sc1ccnc2ccc(-c3cccc(OC(F)F)c3)cc12)C(=O)O [Compound 104]	238
COc1cc2nccc(SC(C)(C)C(=O)O)c2cc1OC [Compound 95, 2-(6,7-dimethoxyquinolin-4-ylthio)-2-methylpropanoic acid]	> 30000
CCC(CC)(Sc1ccnc2ccc(-c3ccnc(C)c3)cc12)C(=O)O [Compound 121, 2-(6-(2-methylpyridin-4-yl)-quinolin-4-ylthio)-2-ethylbutanoic acid]	360
CCC(CC)(Sc1ccnc2ccc(-c3ccncc3)cc12)C(=O)O [Compound 119, 2-(6-(pyridin-4-yl)quinolin-4-ylthio)-2-ethylbutanoic acid]	133
CC(C)(Sc1ccnc2ccc(-c3cccc(OC(F)(F)F)c3)cc12)C(=O)O [Compound 101, 2-(6-(3-trifluoromethoxy-phenyl)-quinolin-4-ylthio)-2-methylpropanoic acid]	710
CC(C)(Sc1ccnc2ccc(-c3ccnc(F)c3)cc12)C(=O)O [Compound 117, 2-(6-(2-fluoropyridin-4-yl)-quinolin-4-ylthio)-2-methylpropanoic acid]	272
CC(C)(Sc1ccncc1-c1ccc(C#N)c2ccccc12)C(=O)O [Ref cpd 1 (RDEA3170), reference compound]	154
COc1ccccc1-c1ccc2nccc(SC(C)(C)C(=O)O)c2c1 [Compound 19, 2-(6-(2-methoxyphenyl)-quinolin-4-ylthio)-2-methylpropanoic acid]	472
CCOc1cccc(-c2ccc3nccc(SC(C)(C)C(=O)O)c3c2)c1 [Compound 102, 2-(6-(3-ethoxy-phenyl)-quinolin-4-ylthio)-2-methylpropanoic acid]	32
CC(C)(Sc1ccnc2ccc(-c3ccc(C(F)(F)F)cc3)cc12)C(=O)O [Compound 34, 2-(6-(4-(trifluoromethyl)phenyl)quinolin-4-ylthio)-2-methylpropanoic acid]	4600
CCC(CC)(Sc1ccnc2ccc(Br)cc12)C(=O)O [Compound 83, 2-(6-bromoquinolin-4-ylthio)-2-ethylbutanoic acid]	70.6
CC(C)(Sc1ccnc2ccc(-c3ccccc3F)cc12)C(=O)O [Compound 25, 2-(6-(2-fluorophenyl)-quinolin-4-ylthio)-2-methylpropanoic acid]	812
CCC(Sc1ccnc2ccc(Br)cc12)C(=O)O (stereo not drawn) [Compound 24, 2-(6-bromoquinolin-4-ylthio)butanoic acid]	6000
CCOc1cccc(-c2ccc3nccc(SC(CC)(CC)C(=O)O)c3c2)c1 [Compound 113, 2-(6-(3-ethoxy-phenyl)-quinolin-4-ylthio)-2-ethylbutanoic acid]	109
CC(C)Oc1cccc(-c2ccc3nccc(SC(C)(C)C(=O)O)c3c2)c1 [Compound 103, 2-(6-(3-isopropoxy-phenyl)-quinolin-4-ylthio)-2-methylpropanoic acid]	37
CCCC(CCC)(Sc1ccnc2ccc(-c3cccc(OCC)c3)cc12)C(=O)O [Compound 108, 2-(6-(3-ethoxy-phenyl)-quinolin-4-ylthio)-2-propylpentanoic acid]	523
CC(C)(Sc1ccnc2ccc(Br)cc12)C(=O)O [Compound 22, 2-((6-bromoquinolin-4-yl)thio)-2-methylpropanoic Acid]	159
2-(6-(2-fluoropyridin-4-yl)-quinolin-4-ylthio)-2-ethylbutanoic acid [Compound 118]	36
2-(6-(3-fluoropyridin-4-yl)-quinolin-4-ylthio)-2-ethylbutanoic acid [Compound 123]	1400
Cc1cc(-c2ccc3nccc(SC(C)(C)C(=O)O)c3c2)ccn1 [Compound 120, 2-(6-(2-methylpyridin-4-yl)quinolin-4-ylthio)-2-methylpropanoic acid]	1240
CC(C)(Sc1ccnc2ccc(C(F)(F)F)cc12)C(=O)O [Compound 96, 2-(6-trifluoromethylquinolin-4-ylthio)-2-methylpropanoic acid]	772
COc1ccc(-c2ccc3nccc(SC(C)(C)C(=O)O)c3c2)cc1 [Compound 21, 2-(6-(4-methoxyphenyl)quinolin-4-ylthio)-2-methylpropanoic acid]	1900
CCCC(CCC)(Sc1ccnc2ccc(-c3cccc(OC4CCC4)c3)cc12)C(=O)O [Compound 110, 2-(6-(3-cyclobutyloxy-phenyl)-quinolin-4-ylthio)-2-propylpentanoic acid]	2860
CCCC(CCC)(Sc1ccnc2ccc(-c3cccc(OC4CC4)c3)cc12)C(=O)O [Compound 109, 2-(6-(3-cyclopropyloxy-phenyl)-quinolin-4-ylthio)-2-propylpentanoic acid]	722
CC(C)(Sc1ccnc2ccc(-c3ccc(C#N)cc3)cc12)C(=O)O [Compound 100, 2-(6-(4-cyano-phenyl)-quinolin-4-ylthio)-2-methylpropanoic acid]	8140

Same assay, conditions: average of the multiple head-to-head comparison tests, Table 2; read-out: Average (IC50 of multiple determinations)

Molecule	pIC50
CCC(CC)(Sc1ccnc2ccc(Br)cc12)C(=O)O [Compound 83, 2-(6-bromoquinolin-4-ylthio)-2-ethylbutanoic acid]	7.15

Same assay, conditions: single determinations of multiple head-to-head tests, Ref cpd 2 vs Cpd 83; read-out: Multiple determination data (IC50)

Molecule	pIC50
CCC(CC)(Sc1ccnc2ccc(Br)cc12)C(=O)O [Compound 83, 2-(6-bromoquinolin-4-ylthio)-2-ethylbutanoic acid]	7.37 and 6.93 and 7.05 and 7.03 and 7.25 and 7.24 and 7.41

Same assay, conditions: statement in the text on Table 1

Molecule	inhibitory effect on uric acid transporter URAT1 (in words)
CCC(CC)(Sc1ccnc2ccc(Br)cc12)C(=O)O [Compound 83, 2-(6-bromoquinolin-4-ylthio)-2-ethylbutanoic acid]	better inhibitory activity against the uric acid transporter than compound 1
